Assay results from patent US20110306554A1, “PEPTIDE CAPABLE OF BINDING TO IMMUNOGLOBULIN” (priority 2009, published 2011).

System: Monoclonal antibody cocktail-induced arthritis mice
Experiment: Arthritis suppressing effects on arthritis-induced mice, Part 3
Format: in vivo
Settings: 10 mg/kg intravenously once a day from day 4, 10 days
Protocol: Monoclonal antibody cocktail-induced arthritis mice were used to examine arthritis suppressing effects of peptides which are indicated as R13 and R17 in the section (3) in Example 2. Arthritis was caused by intravenous administration of 2 mg/mouse of an arthritis-inducing monoclonal antibody cocktail and three days later, intraperitoneal administration of 50 μg/mouse of LPS. The peptides were given via intraperitoneal or intravenous administration at a dose of 10 mg/kg once a day for a period of 10 consecutive days from four days after the administration of the arthritis-inducing monoclonal antibody cocktail, and arthritis suppressing effect was examined in terms of clinical score and hind-limb volume determination.
The required amount was calculated for each peptide, based on the animal weight. Each peptide solution was prepared using physiological saline (at 0.1 mg/ml for R1, 1 mg/ml for R2, and 1 or 10 mg/ml for R13 and R17), and cold stored. […]
Results of examinations were expressed by mean value±standard error and analyzed using EXSAS (Version 7.1.6, Arm Systex Co., Ltd.). […] Quantitative data, such as body weights and leg volumes, were subjected to Bartlett's test, followed by Dunnett's multiple comparison test when the variance was uniform or Steel's multiple comparison test when the variance was not uniform.

In the case of “KFTSKVPGLYYFVYH (Immunoglobulin binding peptide) [R17]”, the “arthritis-suppressing effect (clinical score)” value is reported as “arthritis-suppressing effects comparable to those of the groups receiving administration of R1 (intravenously) or R2 (intraperitoneally)”.
